What was measured:
[1] = test system: tyrosinase; experiment: pigment formation of human melanocytes: tyrosinase activity; format: cell-based; details: 1 nM as the sole hormone in the culture medium; analysed after 9 days
Method: In a series of experiments, the influence of chlormadinone acetate (CMA) on the proliferation or pigment formation of human melanocytes was examined.
To this end, human melanocytes were cultured in each case in the corresponding culture medium, which in each case contained different quantities of ethinyl oestradiol (EO), chlormadinone acetate (CMA) or a combination thereof. The individual compositions are summarised below in Table 1.
After 9 days the human melanocytes were analysed in vitro. Cell growth and cell death were determined by cell counting by means of Typan blue staining and by commercial cell proliferation and apoptosis tests. Pigment formation was determined both by measuring the melanin concentration of the cells and by measuring tyrosinase, the key enzyme in pigment formation.

[2] = test system: human melanocytes; experiment: proliferation of human melanocytes cultured with hormones (cell counting, proliferation and apoptosis tests); format: cell-based; details: analysed after 9 days
Method: In a series of experiments, the influence of chlormadinone acetate (CMA) on the proliferation or pigment formation of human melanocytes was examined. To this end, human melanocytes were cultured in each case in the corresponding culture medium, which in each case contained different quantities of ethinyl oestradiol (EO), chlormadinone acetate (CMA) or a combination thereof. The individual compositions are summarised below in Table 1. [table] After 9 days the human melanocytes were analysed in vitro. Cell growth and cell death were determined by cell counting by means of Typan blue staining and by commercial cell proliferation and apoptosis tests. Pigment formation was determined both by measuring the melanin concentration of the cells and by measuring tyrosinase, the key enzyme in pigment formation.

C#C[C@]1(O)CC[C@H]2[C@@H]3CCc4cc(O)ccc4[C@H]3CC[C@@]21C [ethinyl oestradiol]
tyrosinase activity of human melanocytes [1]: increased | proliferation of human melanocytes ([2]; 1 nM as the sole hormone in the culture medium): increased

CC(=O)O[C@]1(C(C)=O)CC[C@H]2[C@@H]3C=C(Cl)C4=CC(=O)CC[C@]4(C)[C@H]3CC[C@@]21C [chlormadinone acetate]
reduction of the proliferation rate of human melanocytes ([2]; 100 nM in the culture medium): 50-70%
